From patent EP4043466B1, “PRC2 INHIBITORS” (Mirati Therapeutics, Inc., priority 2018, dated 2019)

test system: Karpas 422 cells; experiment: Karpas 422 cell viability, CTG (Cell Titre Glo) assay; format: cell-based, human; settings: Homo sapiens; Inhibition of proliferation of Karpas 422 cells (EZH2 Y641N); viability measured Day 4, Day 7 or Day 11, time point of the tabulated values not stated
Method: Karpas 422 cell line is a human B cell non-Hodgkin's lymphoma cell line established from a patient having DLBCL. This EZH2 heterozygotic cell line expresses a mutant form of EZH2 enzyme (Y641N) that increases histone H3 methylation and this mutation has been implicated in the tumorgenesis of lymphomas, such as DLBCL.
Karpas 422 cells (PHE cat no., 06101702) were cultured in RPMI medium supplemented with 20% fetal bovine serum and 1% penicillin/1% streptomycin and plated at a density of 1000 cells/90 µl/well in 96 well white assay plates. A dose response curve for compounds of the present invention was determined by adding a 10µl aliquot of stock solutions of varying concentrations of compounds to the same medium in each well, over a concentration range of 10µM using 3-fold dilutions to a final concentration of 1.5nM. The plates were incubated at 37° C for predetermined time periods, Day 4, Day 7, or Day 11, and the viability of the cells was measured using a CTG assay kit (Cell Titre Glo; Promega cat.no G7573) on Day 4 and Day 7 in accordance with the manufacturer's instructions.
For the viability assay for the Day 11 plates, the plates were subjected to centrifugation at 1100 rpm for five minutes on Day 7 and the supernatant was removed by aspiration. The cells were resuspended in 90 µl aliquot of the appropriate growth medium lacking the compound followed by addition of 10 µl of a 10X stock of the same compound at the same concentration. The viability of the Day 11 cells was measured using the CTG assay kit described above in accordance with the manufacturer's instructions. The IC50 values for each compound at each predetermined time point were calculated using Graph pad PRISM software and the results are shown in Table 15. A = ≤250 nM; B = […] - ≤500 nM; and C = >500 nM.

Compound	IC50
Cc1cc(C(=O)N(C)C)ccc1-c1cnc(NCc2c(F)ccc3c2CCO3)n2cc(C#N)nc12 [Example 44, 4-(2-cyano-5-(((5-fluoro-2,3-dihydrobenzofuran-4-yl)methyl)amlno)lmldazo[1,2-c]pyrlmldln-8-yl)-N,N,3-trimethylbenzamide]	≤ 250 nM
Cc1nn(C(C)C)cc1-c1cnc(NCc2c(F)ccc3c2CCO3)n2cc(C(N)=O)nc12 [Example 13, 5-(((5-fluoro-2,3-dihydrobenzofuran-4-yl)methyl)amino)-8-(1-isopropyl-3-methyl-1H-pyrazol-4-yl)imidazo[1,2-c]pyrimidine-2-carboxamide]	250 to 500 nM
Cc1cc(S(C)(=O)=O)ccc1-c1cnc(NCc2c(F)ccc3c2CCO3)n2cc(C#N)nc12 [Example 87, 5-(((5-fluoro-2,3-dihydrobenzofuran-4-yl)methyl)amino)-8-(2-methyl-4-(methylsulfonyl)phenyl)imidazo[1,2-c]pyrimidine-2-carbonitrile]	≤ 250 nM
Cc1cn(-c2cnc(NCc3c(F)ccc4c3CCO4)n3cc(C#N)nc23)cn1 [Example 139, 5-(((5-fluoro-2,3-dihydrobenzofuran-4-yl)methyl)amino)-8-(4-methyl-1H-imidazol-1-yl)imidazo[1,2-c]pyrimidine-2-carbonitrile]	≤ 250 nM

molecular target: purified human, His-tagged PRC2 complex (Homo sapiens, UniProt O75530+Q15910); experiment: Hot Spot HMT assay: inhibition of PRC2 enzymatic activity (transfer of tritiated methyl from SAM to core histone, filter binding); format: biochemical; settings: not given
Sequence (Q15910 whole entry): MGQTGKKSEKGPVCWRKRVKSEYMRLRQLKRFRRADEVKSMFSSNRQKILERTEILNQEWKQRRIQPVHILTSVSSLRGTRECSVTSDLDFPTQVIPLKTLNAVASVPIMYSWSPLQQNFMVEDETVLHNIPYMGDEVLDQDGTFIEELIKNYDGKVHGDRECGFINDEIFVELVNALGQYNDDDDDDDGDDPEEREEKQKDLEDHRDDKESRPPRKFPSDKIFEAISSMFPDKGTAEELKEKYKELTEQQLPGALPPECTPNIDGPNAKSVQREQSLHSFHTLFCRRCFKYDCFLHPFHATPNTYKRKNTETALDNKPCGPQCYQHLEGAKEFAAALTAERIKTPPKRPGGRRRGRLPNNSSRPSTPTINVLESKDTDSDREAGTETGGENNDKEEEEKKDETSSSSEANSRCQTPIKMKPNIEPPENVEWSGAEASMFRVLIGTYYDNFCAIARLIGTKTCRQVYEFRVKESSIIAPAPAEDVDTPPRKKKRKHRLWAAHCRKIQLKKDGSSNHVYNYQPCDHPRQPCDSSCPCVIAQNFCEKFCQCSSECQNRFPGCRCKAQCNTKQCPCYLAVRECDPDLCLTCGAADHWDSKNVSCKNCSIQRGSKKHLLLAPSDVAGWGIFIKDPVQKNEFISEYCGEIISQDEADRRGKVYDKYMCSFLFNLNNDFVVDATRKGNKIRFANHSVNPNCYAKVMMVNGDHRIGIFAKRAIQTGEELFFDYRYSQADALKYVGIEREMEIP
Sequence (O75530 whole entry): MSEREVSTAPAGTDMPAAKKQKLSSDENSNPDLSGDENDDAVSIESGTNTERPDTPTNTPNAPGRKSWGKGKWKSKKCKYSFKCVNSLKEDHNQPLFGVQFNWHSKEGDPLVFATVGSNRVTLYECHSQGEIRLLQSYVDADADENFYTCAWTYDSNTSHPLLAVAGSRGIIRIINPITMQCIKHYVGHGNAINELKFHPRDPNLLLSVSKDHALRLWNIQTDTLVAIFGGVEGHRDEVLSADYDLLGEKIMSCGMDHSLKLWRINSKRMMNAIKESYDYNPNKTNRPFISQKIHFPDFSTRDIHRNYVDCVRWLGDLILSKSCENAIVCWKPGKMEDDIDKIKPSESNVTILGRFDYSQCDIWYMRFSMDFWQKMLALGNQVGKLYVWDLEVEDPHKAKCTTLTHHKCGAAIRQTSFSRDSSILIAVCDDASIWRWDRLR
Sequence (Q15022 whole entry partner): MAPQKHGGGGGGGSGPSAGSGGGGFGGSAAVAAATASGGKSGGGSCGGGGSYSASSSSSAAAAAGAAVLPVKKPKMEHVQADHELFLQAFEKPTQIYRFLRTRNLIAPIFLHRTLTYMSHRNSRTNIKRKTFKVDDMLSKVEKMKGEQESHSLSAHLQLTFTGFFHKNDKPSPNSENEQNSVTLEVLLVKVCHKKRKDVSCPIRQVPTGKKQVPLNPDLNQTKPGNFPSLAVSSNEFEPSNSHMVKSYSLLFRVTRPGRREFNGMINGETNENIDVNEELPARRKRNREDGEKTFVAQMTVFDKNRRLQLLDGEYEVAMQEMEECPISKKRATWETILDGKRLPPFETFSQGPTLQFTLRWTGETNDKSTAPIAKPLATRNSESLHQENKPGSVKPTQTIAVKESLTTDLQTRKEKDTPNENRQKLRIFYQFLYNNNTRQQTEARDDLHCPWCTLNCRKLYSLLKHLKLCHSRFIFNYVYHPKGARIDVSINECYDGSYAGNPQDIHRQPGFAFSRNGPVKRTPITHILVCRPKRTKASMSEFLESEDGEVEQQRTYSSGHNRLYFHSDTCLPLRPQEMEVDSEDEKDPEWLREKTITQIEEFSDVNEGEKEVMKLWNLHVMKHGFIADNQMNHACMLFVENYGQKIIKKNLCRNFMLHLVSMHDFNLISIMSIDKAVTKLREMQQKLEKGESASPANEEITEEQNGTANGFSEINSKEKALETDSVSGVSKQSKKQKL
Sequence (Q6ZN18 whole entry partner): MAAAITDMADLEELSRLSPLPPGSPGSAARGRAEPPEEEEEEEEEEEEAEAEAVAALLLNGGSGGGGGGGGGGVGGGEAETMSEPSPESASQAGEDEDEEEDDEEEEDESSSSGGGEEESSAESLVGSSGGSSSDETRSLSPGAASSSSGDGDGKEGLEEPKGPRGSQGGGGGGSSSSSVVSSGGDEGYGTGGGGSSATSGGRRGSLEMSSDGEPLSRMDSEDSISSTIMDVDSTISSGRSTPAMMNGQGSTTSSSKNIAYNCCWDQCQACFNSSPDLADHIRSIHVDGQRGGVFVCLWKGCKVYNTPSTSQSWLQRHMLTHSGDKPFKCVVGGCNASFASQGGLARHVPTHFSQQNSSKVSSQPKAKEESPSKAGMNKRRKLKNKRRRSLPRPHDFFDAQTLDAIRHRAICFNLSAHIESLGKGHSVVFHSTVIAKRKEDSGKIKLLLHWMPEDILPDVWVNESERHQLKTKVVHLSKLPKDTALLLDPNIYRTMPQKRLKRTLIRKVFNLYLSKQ
Sequence (Q09028 whole entry partner): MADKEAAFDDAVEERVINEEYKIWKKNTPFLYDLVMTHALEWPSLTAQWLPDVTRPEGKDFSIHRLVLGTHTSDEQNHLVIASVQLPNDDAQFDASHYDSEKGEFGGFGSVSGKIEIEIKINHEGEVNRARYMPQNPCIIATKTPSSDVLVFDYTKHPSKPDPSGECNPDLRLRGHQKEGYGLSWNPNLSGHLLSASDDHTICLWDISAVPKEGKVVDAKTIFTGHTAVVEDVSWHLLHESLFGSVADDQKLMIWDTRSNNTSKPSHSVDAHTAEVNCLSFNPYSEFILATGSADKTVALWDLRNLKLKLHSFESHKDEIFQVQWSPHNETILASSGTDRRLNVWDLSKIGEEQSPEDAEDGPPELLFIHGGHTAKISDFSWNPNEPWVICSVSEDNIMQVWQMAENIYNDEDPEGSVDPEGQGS
Description: The assay uses purified human, His-tagged PRC2 complex, including N-terminal His-tagged EZH2 enzyme, N-terminal Flag-tagged embryonic ectoderm development protein (EED), N-terminal His-tagged suppressor of zeste 12 (SUZ12), N-terminal His-tagged AEBP2, and N-terminal His-tagged RbAp48. In this assay, the transfer of the tritiated methyl group from radiolabeled S-adenosyl methionine (SAM) to purified core histone protein by EZH2 is quantitated after filtration to determine the activity of the core PRC2 complex in the presence and absence of compound.
The initial starting concentration for the serial dilutions of each compound was 1.0 µM. […] SAH (S-(5-adenosyl)-L-homocysteine) was used as a positive control for assay validation.
An aliquot of each serial dilution of test compound was added to deep 384 well plate using Acoustic Technology instrument (Echo 550, LabCyte) containing reaction buffer (50 mM Tris-HCl (pH 8.)), 0.01% Brij35, 1 mM EDTA, 1 mM DTT, 1 mM PMSF and 1% DMSO), 10 nM purified PRC2 complex and 0.05 mg/ml core histone H3 in a 5 µl volume. The reaction was mixed gently and then pre-incubated for 20 min at 30°C. The enzymatic reaction was initiated by adding 1 uM S-Adenosyl-L-[methyl - ^3H]methionine and incubated for 1 hr at 30°C. After 1 hr, the reaction product was detected using a filter binding method and the amount of tritiated H3 core histone was quantitated using a scintillation counter.

Compound	IC50
CN(C)Cc1cc(-c2cnc(NCc3c(F)ccc4c3CCO4)n3cc(C#N)nc23)n(C)n1 [Example 210, 8-(3-((dimethylamino)methyl)-1-methyl-1H-pyrazol-5-yl)-5-(((5-fluoro-2,3-dihydrobenzofuran-4-yl)methyl)amino)imidazo[1,2-c]pyrimidine-2-carbonitrile]	< 100 nM

same assay, conditions: Inhibition of PRC2-mediated enzymatic activity; 10 nM PRC2 complex, 0.05 mg/ml core histone H3, 1 uM 3H-SAM, 1 hr at 30°C

Compound	IC50
Cc1cc(C(=O)N(C)C)ccc1-c1cnc(NCc2c(F)ccc3c2CCO3)n2cc(C#N)nc12 [Example 44, 4-(2-cyano-5-(((5-fluoro-2,3-dihydrobenzofuran-4-yl)methyl)amlno)lmldazo[1,2-c]pyrlmldln-8-yl)-N,N,3-trimethylbenzamide]	< 100 nM
Cc1nn(C(C)C)cc1-c1cnc(NCc2c(F)ccc3c2CCO3)n2cc(C(N)=O)nc12 [Example 13, 5-(((5-fluoro-2,3-dihydrobenzofuran-4-yl)methyl)amino)-8-(1-isopropyl-3-methyl-1H-pyrazol-4-yl)imidazo[1,2-c]pyrimidine-2-carboxamide]	< 100 nM
Cc1cn(-c2cnc(NCc3c(F)ccc4c3CCO4)n3cc(C(=O)O)nc23)cn1 [Example 4, 5-(((5-fluoro-2,3-dihydrobenzofuran-4-yl)methyl)amino)-8-(4-methyl-1H-imidazol-1-yl)imidazo[1,2-c]pyrimidine-2-carboxylic acid]	< 100 nM
N#Cc1cn2c(NCc3c(F)ccc4c3CCO4)ncc(-c3cnn(C4CCOC4)c3)c2n1 (centres unmarked) [Example 107, 5-(((5-fluoro-2,3-dihydrobenzofuran-4-yl)methyl)amino)-8-(1-(tetrahydrofuran-3-yl)-1H-pyrazol-4-yl)imidazo[1,2-c]pyrimidine-2-carbonitrile]	100 to 500 nM
N#Cc1cn2c(NCc3c(F)ccc4c3CCO4)ncc(-c3ccnn3CCO)c2n1 [Example 231, 5-(((5-fluoro-2,3-dihydrobenzofuran-4-yl)methyl)amino)-8-(1-(2-hydroxyethyl)-1H-pyrazol-5-yl)imidazo[1,2-c]pyrimidine-2-carbonitrile]	100 to 500 nM
COc1cc(C)c(-c2cnc(NCc3c(F)ccc4c3CCO4)n3cc(C(N)=O)nc23)cn1 [Example 14, 5-(((5-fluoro-2,3-dihydrobenzofuran-4-yl)methyl)amino)-8-(6-methoxy-4-methylpyridin-3-yl)imidazo[1,2-c]pyrimidine-2-carboxamide]	100 to 500 nM
CN1CCC1c1ccc(-c2cnc(NCc3c(F)ccc4c3CCO4)n3cc(C#N)nc23)cc1 (centres unmarked) [Example 221, 5-(((5-fluoro-2,3-dihydrobenzofuran-4-yl)methyl)amino)-8-(4-(1-methylazetidin-2-yl)phenyl)imidazo[1,2-c]pyrimidine-2-carbonitrile]	< 100 nM
Cc1c(-c2cnc(NCc3c(F)ccc4c3CCO4)n3cc(C(=O)O)nc23)cnn1C(C)C [Example 8, 5-(((5-fluoro-2,3-dihydrobenzofuran-4-yl)methyl)amino)-8-(1-isopropyl-5-methyl-1H-pyrazol-4-yl)imidazo[1,2-c]pyrimidine-2-carboxylic acid]	< 100 nM
N#Cc1cn2c(NCc3c(F)ccc4c3CCO4)ncc(-c3ccc(N4CCCCC4)nc3)c2n1 [Example 135, 5-(((5-fluoro-2,3-dihydrobenzofuran-4-yl)methyl)amino)-8-(6-(piperidin-1-yl)pyridin-3-yl)imidazo[1,2-c]pyrimidine-2-carbonitrile]	< 100 nM
N#Cc1cn2c(NCc3c(F)ccc4c3CCO4)ncc(-c3n[nH]cc3Br)c2n1 [Example 232, 8-(4-bromo-1H-pyrazol-3-yl)-5-(((5-fluoro-2,3-dihydrobenzofuran-4-yl)methyl)amino)imidazo[1,2-c]pyrimidine-2-carbonitrile]	100 to 500 nM
CN(C)CCCn1cc(-c2cnc(NCc3c(F)ccc4c3CCO4)n3cc(C#N)nc23)cn1 [Example 103, 8-(1-(3-(dimethylamino)propyl)-1H-pyrazol-4-yl)-5-(((5-fluoro-2,3-dihydrobenzofuran-4-yl)methyl)amino)imidazo[1,2-c]pyrimidine-2-carbonitrile]	100 to 500 nM
CN(C)Cc1ncc(-c2cnc(NCc3c(F)ccc4c3CCO4)n3cc(C#N)nc23)cn1 [Example 216, 8-(2-((dimethylamino)methyl)pyrimidin-5-yl)-5-(((5-fluoro-2,3-dihydrobenzofuran-4-yl)methyl)amino)imidazo[1,2-c]pyrimidine-2-carbonitrile]	< 100 nM
CN(C)C(=O)c1ccc(-c2cnc(NCc3c(F)ccc4c3CCO4)n3cc(C#N)nc23)c(Cl)c1F [Example 34, 3-chloro-4-(2-cyano-5-(((5-fluoro-2,3-dlhydrobenzofuran-4-yl)methyl)amino)imidazo[1,2-c]pyrimidin-8-yl)-2-fluoro-N,N-dimethylbenzamide]	< 100 nM
N#Cc1cncc(-c2cnc(NCc3c(F)ccc4c3CCO4)n3cc(C#N)nc23)c1 [Example 95, 8-(5-cyanopyridin-3-yl)-5-(((5-fluoro-2,3-dihydrobenzofuran-4-yl)methyl)amino)imidazo[1,2-c]pyrimidine-2-carbonitrile]	< 100 nM
COc1cncc(-c2cnc(NCc3c(F)ccc4c3CCO4)n3cc(C#N)nc23)c1 [Example 93, 5-(((5-fluoro-2,3-dihydrobenzofuran-4-yl)methyl)amino)-8-(5-methoxypyridin-3-yl)imidazo[1,2-c]pyrimidine-2-carbonitrile]	100 to 500 nM
N#Cc1cn2c(NCc3c(F)ccc4c3CCO4)ncc(-c3ccc(CN4CCC(O)C4)cc3)c2n1 (centres unmarked) [Example 151, 5-(((5-fluoro-2,3-dihydrobenzofuran-4-yl)methyl)amino)-8-(4-((3-hydroxypyrrolidin-1-yl)methyl)phenyl)imidazo[1,2-c]pyrimidine-2-carbonitrile]	< 100 nM
N#Cc1cn2c(NCc3c(F)ccc4c3CCO4)ncc(C3CCOCC3)c2n1 [Example 141, 5-(((5-fluoro-2,3-dihydrobenzofuran-4-yl)methyl)amino)-8-(tetrahydro-2H-pyran-4-yl)imidazo[1,2-c]pyrimidine-2-carbonitrile]	> 500 nM
CC(C)n1cc(-c2cnc(NCc3c(F)ccc4c3CCO4)n3cc(C#N)nc23)cn1 [Example 99, 5-(((5-fluoro-2,3-dihydrobenzofuran-4-yl)methyl)amino)-8-(1-isopropyl-1H-pyrazol-4-yl)imidazo[1,2-c]pyrimidine-2-carbonitrile]	< 100 nM
5-(((5-fluoro-2,3-dihydrobenzofuran-4-yl)methyl)amino)-8-(4-methyl-1H-imidazol-1-yl)imidazo[1,2-c]pyrimidine-2-carboxamide [Example 17]	100 to 500 nM
COc1cc(C)c(-c2cnc(NCc3c(F)ccc4c3CCO4)n3cc(C#N)nc23)cn1 [Example 24, 5-(((5-fluoro-2,3-dihydrobenzofuran-4-yl)methyl)amino)-8-(6-methoxy-4-methylpyridin-3-yl)imidazo[1,2-c]pyrimidine-2-carbonitrile]	100 to 500 nM
CN(C)Cc1ccc(-c2cnc(NCc3c(F)ccc4c3CCO4)n3cc(C#N)nc23)c(Cl)c1F [Example 83, 8-(2-chloro-4-((dimethylamino)methyl)-3-fluorophenyl)-5-(((5-fluoro-2,3-dihydrobenzofuran-4-yl)methyl)amino)imidazo[1,2-c]pyrimidine-2-carbonitrile]	< 100 nM
